Measured values: patent US20260028326A1, “COMPOUND BASED ON ISOINDOLINE-SUBSTITUTED GLUTARIMIDE BACKBONE AND USE THEREOF” (GLUETACS THERAPEUTICS (SHANGHAI) CO., LTD., priority 2022, published 2026)
“And” between values parts separate entries of the source, which are not always exact repeats. Equal values may be shown once.

How the values were obtained:
[1] = target: human Cereblon WT GST-tagged protein (Homo sapiens (Human), UniProt Q96SW2); assay: CRBN-binding affinity, HTRF (CEREBLON BINDING kit)
How it was run: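 GST-tagged human WT Cereblon incubated with compound, then Thalidomide-Re tracer and anti-GST Eu antibody added. Displacement read by HTRF, reported as CRBN binding inhibition rate against blank control wells without protein.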

IKZF3 protein = IKZF3 protein (Homo sapiens (Human), UniProt Q96SW2+Q9UKT9); assay: Western-blot assay of substrate protein degradation in hPBMC, IKZF3; type: cell-based; settings: hPBMC cells, compound 500 nM, 24 hours, Western blot
IKZF1 protein = IKZF1 protein (Homo sapiens (Human), UniProt Q13422+Q96SW2); assay: Western-blot assay of substrate protein degradation in hPBMC, IKZF1; type: cell-based; settings: hPBMC cells, compound 500 nM, 24 hours, Western blot
GSPT1 protein = GSPT1 protein (Homo sapiens (Human), UniProt P15170+Q96SW2); assay: Western-blot assay of substrate protein degradation in hPBMC, GSPT1; type: cell-based; settings: hPBMC cells, compound 500 nM, 24 hours, Western blot
GSPT1 protein, sequence (P15170 whole entry): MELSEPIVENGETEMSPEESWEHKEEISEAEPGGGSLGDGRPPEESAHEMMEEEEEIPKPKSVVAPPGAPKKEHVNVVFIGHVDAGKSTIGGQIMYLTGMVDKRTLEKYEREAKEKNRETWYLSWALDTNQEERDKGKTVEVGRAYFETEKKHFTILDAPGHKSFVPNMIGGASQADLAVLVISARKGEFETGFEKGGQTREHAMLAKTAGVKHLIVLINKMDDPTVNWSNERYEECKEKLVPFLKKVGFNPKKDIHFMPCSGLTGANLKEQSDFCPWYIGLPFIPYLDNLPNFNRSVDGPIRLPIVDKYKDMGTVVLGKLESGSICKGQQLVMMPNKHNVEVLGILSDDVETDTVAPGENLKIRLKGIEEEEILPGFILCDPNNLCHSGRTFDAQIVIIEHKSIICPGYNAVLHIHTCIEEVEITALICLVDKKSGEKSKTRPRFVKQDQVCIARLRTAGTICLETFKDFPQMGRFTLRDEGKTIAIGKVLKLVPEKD
GSPT1 protein, sequence (Q96SW2 whole entry): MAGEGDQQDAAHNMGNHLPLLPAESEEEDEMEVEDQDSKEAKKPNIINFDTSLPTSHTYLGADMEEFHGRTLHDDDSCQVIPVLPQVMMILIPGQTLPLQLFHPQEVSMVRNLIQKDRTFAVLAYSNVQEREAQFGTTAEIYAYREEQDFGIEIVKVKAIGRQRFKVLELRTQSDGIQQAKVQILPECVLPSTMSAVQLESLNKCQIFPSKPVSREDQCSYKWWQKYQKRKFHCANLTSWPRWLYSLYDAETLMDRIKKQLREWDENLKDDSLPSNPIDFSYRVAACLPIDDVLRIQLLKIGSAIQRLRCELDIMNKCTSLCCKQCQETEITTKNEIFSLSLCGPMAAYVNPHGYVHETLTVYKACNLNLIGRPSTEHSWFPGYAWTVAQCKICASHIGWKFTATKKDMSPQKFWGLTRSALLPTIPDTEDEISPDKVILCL
GSPT1 protein, sequence (Q16531 whole entry partner): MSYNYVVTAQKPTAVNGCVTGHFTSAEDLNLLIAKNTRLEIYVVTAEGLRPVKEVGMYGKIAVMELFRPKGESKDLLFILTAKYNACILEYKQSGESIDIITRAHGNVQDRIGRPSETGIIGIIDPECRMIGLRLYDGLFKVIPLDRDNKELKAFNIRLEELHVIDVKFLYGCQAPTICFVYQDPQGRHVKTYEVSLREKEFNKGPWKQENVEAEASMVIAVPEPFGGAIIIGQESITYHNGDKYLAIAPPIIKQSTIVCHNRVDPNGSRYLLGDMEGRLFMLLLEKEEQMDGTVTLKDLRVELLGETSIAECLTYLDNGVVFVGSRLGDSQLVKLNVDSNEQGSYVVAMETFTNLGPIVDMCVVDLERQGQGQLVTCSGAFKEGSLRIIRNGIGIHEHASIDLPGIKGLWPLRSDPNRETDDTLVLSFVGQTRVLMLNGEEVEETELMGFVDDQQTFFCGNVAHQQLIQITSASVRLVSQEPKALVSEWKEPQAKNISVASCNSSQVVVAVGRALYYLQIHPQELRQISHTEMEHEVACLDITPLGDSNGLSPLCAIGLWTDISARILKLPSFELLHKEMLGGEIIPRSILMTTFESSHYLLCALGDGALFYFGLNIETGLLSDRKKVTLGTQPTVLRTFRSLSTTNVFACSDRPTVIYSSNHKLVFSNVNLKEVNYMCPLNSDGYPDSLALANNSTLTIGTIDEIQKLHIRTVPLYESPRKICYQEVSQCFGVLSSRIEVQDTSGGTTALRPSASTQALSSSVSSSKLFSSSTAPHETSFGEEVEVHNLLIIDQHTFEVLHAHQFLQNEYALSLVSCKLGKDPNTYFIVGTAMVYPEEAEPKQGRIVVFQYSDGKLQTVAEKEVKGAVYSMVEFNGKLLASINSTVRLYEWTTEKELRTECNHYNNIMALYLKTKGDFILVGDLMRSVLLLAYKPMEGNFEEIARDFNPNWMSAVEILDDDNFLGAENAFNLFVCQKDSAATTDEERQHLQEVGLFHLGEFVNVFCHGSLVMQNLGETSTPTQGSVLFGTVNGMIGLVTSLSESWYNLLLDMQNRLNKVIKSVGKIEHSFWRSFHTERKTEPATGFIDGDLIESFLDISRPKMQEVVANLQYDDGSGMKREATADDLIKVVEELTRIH

human Cereblon WT GST-tagged protein, sequence (Q96SW2 whole entry): as the sequence (Q96SW2 whole entry) above
IKZF1 protein, sequence (Q13422 whole entry): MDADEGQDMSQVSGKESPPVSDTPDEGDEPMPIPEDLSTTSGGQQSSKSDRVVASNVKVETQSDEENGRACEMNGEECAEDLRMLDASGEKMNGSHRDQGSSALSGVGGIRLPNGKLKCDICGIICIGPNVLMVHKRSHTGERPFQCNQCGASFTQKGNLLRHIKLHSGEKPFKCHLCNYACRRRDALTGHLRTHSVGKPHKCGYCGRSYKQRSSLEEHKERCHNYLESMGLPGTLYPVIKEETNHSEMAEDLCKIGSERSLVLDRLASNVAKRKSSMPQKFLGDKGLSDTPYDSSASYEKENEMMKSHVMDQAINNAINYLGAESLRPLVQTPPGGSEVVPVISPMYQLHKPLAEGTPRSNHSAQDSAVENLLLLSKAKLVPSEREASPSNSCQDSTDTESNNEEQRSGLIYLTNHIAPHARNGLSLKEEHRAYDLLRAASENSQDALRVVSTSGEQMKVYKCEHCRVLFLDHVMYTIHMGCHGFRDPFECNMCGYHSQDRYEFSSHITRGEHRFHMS
IKZF1 protein, sequence (Q96SW2 whole entry): as the sequence (Q96SW2 whole entry) above
IKZF1 protein, sequence (Q16531 whole entry partner): as the sequence (Q16531 whole entry partner) above
IKZF3 protein, sequence (Q9UKT9 whole entry): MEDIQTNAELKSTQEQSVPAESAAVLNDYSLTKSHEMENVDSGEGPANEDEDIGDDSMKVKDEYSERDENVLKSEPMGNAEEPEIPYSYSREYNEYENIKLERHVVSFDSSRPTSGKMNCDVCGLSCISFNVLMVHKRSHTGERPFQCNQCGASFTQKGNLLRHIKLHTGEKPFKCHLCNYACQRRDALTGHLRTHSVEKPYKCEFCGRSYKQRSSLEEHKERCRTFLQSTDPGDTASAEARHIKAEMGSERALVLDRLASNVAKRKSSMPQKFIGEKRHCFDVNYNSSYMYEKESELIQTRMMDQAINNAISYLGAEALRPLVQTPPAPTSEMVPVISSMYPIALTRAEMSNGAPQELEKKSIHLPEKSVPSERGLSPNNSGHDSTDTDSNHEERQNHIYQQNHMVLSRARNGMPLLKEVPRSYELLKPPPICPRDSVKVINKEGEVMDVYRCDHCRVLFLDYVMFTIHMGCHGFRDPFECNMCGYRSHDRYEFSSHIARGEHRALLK
IKZF3 protein, sequence (Q96SW2 whole entry): as the sequence (Q96SW2 whole entry) above
IKZF3 protein, sequence (Q16531 whole entry partner): as the sequence (Q16531 whole entry partner) above

SMILES	IC50 [1]	residual substrate protein level, IKZF3 (IKZF3 protein)	residual substrate protein level, IKZF1 (IKZF1 protein)	residual substrate protein level, GSPT1 (GSPT1 protein)
O=C1CCC(N2Cc3cc(C(=O)N4CC5CCC(C4)N5Cc4ccccc4-c4ccc(Cl)cc4)ccc3C2=O)C(=O)N1 (stereo not shown) [GT-05621, 3-(5-(8-((4′-chloro-[1,1′-biphenyl]-2-yl)methyl)-3,8-diazabicyclo[3.2.1]octane-3-carbonyl)-1-oxoisoindolin-2-yl)piperidine-2,6-dione]	1100 nM	B (B represents a residual substrate protein level of >50%)	B (B represents a residual substrate protein level of >50%)	A (A represents a residual substrate protein level of <50%)
CC1(C)CCC(CN2CC3CC(C2)N3Cc2ccc3c(c2)CN(C2CCC(=O)NC2=O)C3=O)=C(c2ccc(F)cc2)C1 (stereo not shown) [GT-05399, 3-(5-((3-((4′-fluoro-5,5-dimethyl-3,4,5,6-tetrahydro-[1,1′-biphenyl]-2-yl)methyl)-3,6-diazabicyclo[3.1.1]heptan-6-yl)methyl)-1-oxoisoindolin-2-yl)piperidine-2,6-dione]	430 nM	B (B represents a residual substrate protein level of >50%)	B (B represents a residual substrate protein level of >50%)	A (A represents a residual substrate protein level of <50%)
CC1(C)CCC(C(=O)N2CC(=Cc3ccc4c(c3)CN(C3CCC(=O)NC3=O)C4=O)C2)=C(c2ccc(Cl)cc2)C1 (stereo not shown) [GT-05420, 3-(5-((1-(4′-chloro-5,5-dimethyl-3,4,5,6-tetrahydro-[1,1′-biphenyl]-2-carbonyl)azetidin-3-ylidene)methyl)-1-oxoisoindolin-2-yl)piperidine-2,6-dione]	730 nM	B (B represents a residual substrate protein level of >50%)	B (B represents a residual substrate protein level of >50%)	A (A represents a residual substrate protein level of <50%)
CC1(C)CCC(CN2CC3CCC(C2)N3Cc2ccc3c(c2F)CN(C2CCC(=O)NC2=O)C3=O)=C(c2ccc(Cl)cc2)C1 (stereo not shown) [GT-03890, 3-(5-((3-((4′-chloro-5,5-dimethyl-3,4,5,6-tetrahydro-[1,1′-biphenyl]-2-yl)methyl)-3,8-diazabicyclo[3.2.1]octan-8-yl)methyl)-4-fluoro-1-oxoisoindolin-2-yl)piperidine-2,6-dione]	510 nM	A (A represents a residual substrate protein level of <50%)	B (B represents a residual substrate protein level of >50%)	A (A represents a residual substrate protein level of <50%)
CC1(C)CCC(C(=O)N2C3CC2CN(Cc2ccc4c(c2)CN(C2CCC(=O)NC2=O)C4=O)C3)=C(c2ccc(F)cc2)C1 (stereo not shown) [GT-05515, 3-(5-((6-(4′-fluoro-5,5-dimethyl-3,4,5,6-tetrahydro-[1,1′-biphenyl]-2-carbonyl)-3,6-diazabicyclo[3.1.1]heptan-3-yl)methyl)-1-oxoisoindolin-2-yl)piperidine-2,6-dione]	1010 nM	B (B represents a residual substrate protein level of >50%)	B (B represents a residual substrate protein level of >50%)	A (A represents a residual substrate protein level of <50%)
CC1(C)CCC(CN2CC3CC(C2)N3C(=O)c2ccc3c(c2)CN(C2CCC(=O)NC2=O)C3=O)=C(c2ccc(F)cc2)C1 (stereo not shown) [GT-05450, 3-(5-(3-((4′-fluoro-5,5-dimethyl-3,4,5,6-tetrahydro-[1,1′-biphenyl]-2-yl)methyl)-3,6-diazabicyclo[3.1.1]heptane-6-carbonyl)-1-oxoisoindolin-2-yl)piperidine-2,6-dione]	890 nM	B (B represents a residual substrate protein level of >50%)	B (B represents a residual substrate protein level of >50%)	A (A represents a residual substrate protein level of <50%)
CC1(C)CCC(CN2CC3(C2)CN(Cc2ccc4c(c2)CN(C2CCC(=O)NC2=O)C4=O)C3)=C(c2ccc(F)cc2)C1 (stereo not shown) [GT-05670, 3-(5-((6-((4′-fluoro-5,5-dimethyl-3,4,5,6-tetrahydro-[1,1′-biphenyl]-2-yl)methyl)-2,6-diazaspiro[3.3]heptan-2-yl)methyl)-1-oxoisoindolin-2-yl)piperidine-2,6-dione]	620 nM	A (A represents a residual substrate protein level of <50%)	A (A represents a residual substrate protein level of <50%)	A (A represents a residual substrate protein level of <50%)
CC1(C)CCC(C(=O)N2CC3CCC2CN3Cc2ccc3c(c2)CN(C2CCC(=O)NC2=O)C3=O)=C(c2ccc(F)cc2)C1 (stereo not shown) [GT-05402, 3-(5-((5-(4′-fluoro-5,5-dimethyl-3,4,5,6-tetrahydro-[1,1′-biphenyl]-2-carbonyl)-2,5-diazabicyclo[2.2.2]octan-2-yl)methyl)-1-oxoisoindolin-2-yl)piperidine-2,6-dione]	430 nM	A (A represents a residual substrate protein level of <50%)	B (B represents a residual substrate protein level of >50%)	B (B represents a residual substrate protein level of >50%)
O=C1CCC(N2Cc3cc(C=C4CN(Cc5ccccc5-c5ccc(Cl)cc5)C4)ccc3C2=O)C(=O)N1 (stereo not shown) [GT-03881, 3-(5-((1-((4′-chloro-[1,1′-biphenyl]-2-yl)methyl)azetidin-3-ylidene)methyl)-1-oxoisoindolin-2-yl)piperidine-2,6-dione]	480 nM	B (B represents a residual substrate protein level of >50%)	B (B represents a residual substrate protein level of >50%)	A (A represents a residual substrate protein level of <50%)
O=C1CCC(N2Cc3cc(CN4C5CC4CN(Cc4ccccc4-c4ccc(Cl)cc4)C5)ccc3C2=O)C(=O)N1 (stereo not shown) [GT-05607, 3-(5-((3-((4′-chloro-[1,1′-biphenyl]-2-yl)methyl)-3,6-diazabicyclo[3.1.1]heptan-6-yl)methyl)-1-oxoisoindolin-2-yl)piperidine-2,6-dione]	1150 nM and 880 nM	B (B represents a residual substrate protein level of >50%)	B (B represents a residual substrate protein level of >50%)	A (A represents a residual substrate protein level of <50%)
CC1(C)CCC(CN2CC3CC2CN3Cc2ccc3c(c2)CN(C2CCC(=O)NC2=O)C3=O)=C(c2ccc(F)cc2)C1 (stereo not shown) [GT-05401, 3-(5-((5-((4′-fluoro-5,5-dimethyl-3,4,5,6-tetrahydro-[1,1′-biphenyl]-2-yl)methyl)-2,5-diazabicyclo[2.2.1]heptan-2-yl)methyl)-1-oxoisoindolin-2-yl)piperidine-2,6-dione]	590 nM	A (A represents a residual substrate protein level of <50%)	B (B represents a residual substrate protein level of >50%)	B (B represents a residual substrate protein level of >50%)
CC1(C)CCC(CN2CC3CC(C2)N3Cc2ccc3c(c2)C(=O)N(C2CCC(=O)NC2=O)C3=O)=C(c2ccc(Cl)cc2)C1 (stereo not shown) [GT-05368, 5-((3-((4′-chloro-5,5-dimethyl-3,4,5,6-tetrahydro-[1,1′-biphenyl]-2-yl)methyl)-3,6-diazabicyclo[3.1.1]heptan-6-yl)methyl)-2-(2,6-dioxopiperidin-3-yl)isoindoline-1,3-dione]	1800 nM	A (A represents a residual substrate protein level of <50%)	B (B represents a residual substrate protein level of >50%)	A (A represents a residual substrate protein level of <50%)
O=C1CCC(N2Cc3cc(CN4CCCN(C(=O)c5ccccc5-c5ccc(Cl)cc5)CC4)ccc3C2=O)C(=O)N1 (stereo not shown) [GT-05644, 3-(5-((4-(4′-chloro-[1,1′-biphenyl]-2-carbonyl)-1,4-diazepan-1-yl)methyl)-1-oxoisoindolin-2-yl)piperidine-2,6-dione]	590 nM	B (B represents a residual substrate protein level of >50%)	B (B represents a residual substrate protein level of >50%)	A (A represents a residual substrate protein level of <50%)
